{
  "source": "patent US20140011822A1",
  "about": "“METHODS AND MATERIALS FOR REDUCING VENOUS STENOSIS FORMATION OF AN ARTERIOVENOUS FISTULA OR GRAFT” (priority 2011, published 2014)",
  "key": {"MMP-9": {"system": "MMP-9", "assay": "RT-PCR for MMP-9 at outflow vein, simvastatin", "format": "in vivo, mice", "experimental": "(§1) Animals were housed at 22° C. temperature, 41% relative humidity, and 12-/12-hour light/dark cycles. Animals were allowed access to water and food ad libitum. […] Sixty-eight male C57BL/6 mice (Jackson Laboratories, Bar Harbor, Me.) weighing 25-30 grams were used for the present study (FIG. 18). Chronic kidney disease was created by surgical removal of the right kidney accompanied by ligation of the arterial blood supply to the upper pole of the left kidney as described elsewhere (Misra et al., J. Vasc. Interv. Radiol., 21:1255-1261 (2010); see, also, FIG. 18A). Three weeks after nephrectomy, the animals were started on simvastatin (40 mg/kg administered i.p. three times per week) or PBS (equal amount of volume used for simvastatin i.p. controls). Simvastatin was prepared as described elsewhere (Wilson et al., Arterioscler Thromb. Vasc. Biol., 21:122-128 (2001)). A week later, an AVF was created by connecting the right carotid artery to the ipsilateral jugular vein (FIG. 18B; see, also, Misra et al., J. Vasc. Interv. Radiol., 21:1255-1261 (2010) and Yang et al., J. Vasc. Interv. Radiol., 20:946-950 (2009)). Animals were sacrificed at day 7, day 14, and day 28 following AVF placement for real time polymerase chain reaction (RT-PCR) and histomorphometric analyses (FIG. 18C). Serum BUN and creatinine were measured by removing blood from the tail vein at baseline (before nephrectomy), at AVF creation, and at the time of sacrifice. […] These animals were started on simvastatin (40 mg/kg i.p.) or PBS (equal amount of volume i.p.) every other day one week before AVF placement and then sacrificed four weeks after fistula placement for histomorphometric analysis.\nThe tissue was stored in RNA stabilizing reagent (Qiagen, Gaithersburg, Md.) as per the manufacturer's guidelines. To isolate the RNA, the specimens were homogenized, and total RNA was isolated using RNeasy mini kit (Qiagen) (Misra et al., J. Vasc. Interv. Radiol., 21:1255-1261 (2010); and Yang et al., J. Vasc. Interv. Radiol., 20:946-950 (2009)).\nExpression for the gene of interest was determined using RT-PCR analysis as described elsewhere (Misra et al., J. Vasc. Interv. Radiol., 21:1255-1261 (2010)). Commercial PCR primers for the gene of interest were purchased from SA Biosciences (Frederick, Md.)."}, "[1]": {"system": "outflow vein of arteriovenous fistula", "assay": "Histomorphometry of outflow vein (neointima, media/adventitia, lumen area, cell density), simvastatin", "format": "in vivo, mice", "settings": "for Average reduction of media/adventitia area / average increase of lumen vessel area / average reduction of media/adventitia cell density / average reduction of neointima area / average reduction of neointima cell density: vs control", "experimental": "as §1\nAt euthanasia, all mice were anesthetized, and the arterio-venous fistula was carefully dissected from of the surrounding tissue. Animals were euthanized by use of CO2 asphyxiation, and the outflow veins harvested for RT-PCR or histomorphometric analyses as described elsewhere (Misra et al., Kidney Int., 68:2890-2900 (2005); Misra et al., J. Vasc. Interv. Radiol., 21:1255-1261 (2010); and Misra et al., Am. J. Physiol. Heart Circ. Physiol., 294:H2219-2230 (2008)).\nMorphometric analysis was performed as described elsewhere (Misra et al., Kidney Int., 68:2890-2900 (2005); and Misra et al., Am. J. Physiol. Heart Circ. Physiol., 294:H2219-2230 (2008)). Briefly, the outflow vein was sectioned into multiple contiguous 4-μm paraffin embedded sections. Typically, 2 to 3 sections per animal for each group (simvastatin and controls) and time point (day 14 and day 28) were photographed and then quantified using KS 400 (Carl Zeiss, Inc., Thornwood, N.Y.) semiquantitative program."}},
  "data": [
    {"smiles": "CCC(C)(C)C(=O)O[C@H]1C[C@@H](C)C=C2C=C[C@H](C)[C@H](CC[C@@H]3C[C@@H](O)CC(=O)O3)[C@H]21", "note": "[simvastatin]", "values": [
      {"measurement": "average gene expression of MMP-9", "setting": "MMP-9; day 7", "value": "0.19±0.03"},
      {"measurement": "Average reduction of MMP-9 gene expression", "setting": "MMP-9; day 7, vs control", "value": 69, "unit": "%"},
      {"measurement": "average gene expression of MMP-9", "setting": "MMP-9; day 14", "value": "0.37±0.02"},
      {"measurement": "Average reduction of MMP-9 gene expression", "setting": "MMP-9; day 14, vs control", "value": 41, "unit": "%"},
      {"measurement": "average area of the media/adventitia", "setting": "[1]; day 14", "value": "147603±4443", "unit": "μm^2"},
      {"measurement": "average area of the neointima", "setting": "[1]; day 14", "value": "61864±12401", "unit": "μm^2"},
      {"measurement": "average cell density of the media/adventitia", "setting": "[1]; day 14", "value": "3.27±0.33"},
      {"measurement": "average cell density of the neointima", "setting": "[1]; day 14", "value": "4.6±0.2"},
      {"measurement": "average lumen vessel area", "setting": "[1]; day 14", "value": "95051±21583"},
      {"measurement": "Average reduction of media/adventitia area", "setting": "[1]; day 14", "value": 43, "unit": "%"},
      {"measurement": "average increase of lumen vessel area", "setting": "[1]; day 14", "value": 150, "unit": "%"},
      {"measurement": "average reduction of media/adventitia cell density", "setting": "[1]; day 14", "value": 37, "unit": "%"},
      {"measurement": "average reduction of neointima area", "setting": "[1]; day 14", "value": 56, "unit": "%"},
      {"measurement": "average reduction of neointima cell density", "setting": "[1]; day 14", "value": 65, "unit": "%"},
      {"measurement": "average area of the neointima", "setting": "[1]; day 28", "value": "85574±1652"},
      {"measurement": "average cell density of the media/adventitia", "setting": "[1]; day 28", "value": "2.85±0.10"},
      {"measurement": "average cell density of the neointima", "setting": "[1]; day 28", "value": "4.2±0.2"},
      {"measurement": "average lumen vessel area", "setting": "[1]; day 28", "value": "162607±34685"},
      {"measurement": "average increase of lumen vessel area", "setting": "[1]; day 28", "value": 343, "unit": "%"},
      {"measurement": "average reduction of media/adventitia cell density", "setting": "[1]; day 28", "value": 35, "unit": "%"},
      {"measurement": "average reduction of neointima area", "setting": "[1]; day 28", "value": 45, "unit": "%"},
      {"measurement": "average reduction of neointima cell density", "setting": "[1]; day 28", "value": 70, "unit": "%"},
      {"measurement": "Average reduction of media/adventitia area", "setting": "[1]; day 28, not statistically significant (P=0.03)", "value": 32, "unit": "%"},
      {"measurement": "average cell density of the media/adventitia", "setting": "[1]; day 28 normal", "value": "1.67±0.1"},
      {"measurement": "average cell density of the neointima", "setting": "[1]; day 28 normal", "value": "2.63±0.11"},
      {"measurement": "average reduction of media/adventitia cell density", "setting": "[1]; day 28 normal", "value": 71, "unit": "%"},
      {"measurement": "average reduction of neointima cell density", "setting": "[1]; day 28 normal", "value": 61, "unit": "%"},
      {"measurement": "Average reduction of media/adventitia area", "setting": "[1]; day 28 normal, not statistically significant (P=0.03)", "value": 29, "unit": "%"}
    ]}
  ]
}
